These compounds were tested against human M4 receptor (Homo sapiens (Human), UniProt P08173) (assay: Radioligand (tritiated N-methylscopolamine) binding assay, M4). Conditions: Ki against the M4 receptor; membranes from CHO cells expressing human M4; tritiated N-methylscopolamine 1.5 nM; read-out: Ki.
Method: Binding affinity (Ki) of compounds was measured by inhibition of radioligand binding to membranes from CHO cells expressing human M1, M2, M3, M4 and M5 receptors. Membranes were prepared by nitrogen cavitation and differential centrifugation as previously described (Hoare et al., Mol. Pharmacol. 2003 March; 63(3): 751-65). The radioligand employed was tritiated N-methylscopolamine, used at a concentration of 1.5 nM. A dose-response of twelve concentrations of compound was used, ranging from 10 μM to […]. The assay buffer was 50 mM HEPES, 100 mM NaCl, 5 mM MgCl2, 1 mM ethylenediaminetetraacetic acid, pH-adjusted to pH 7.4. Membranes, radioligand and compound were incubated together for 90 minutes at 37° C., in a total volume of 150 μl in a 96-well plate. Receptor-bound radioligand was then collected by harvesting the assay over glass fiber filters pretreated with polyethylenimine to trap the cell membranes, using rapid vacuum filtration. Harvesting and radioactivity counting was conducted as previously described (see, e.g., Hoare et al., Mol. Pharmacol. 2003 63(3):751-65); Erratum at Mol. Pharmacol. 2005 July; 68(1): 260).

human M4 receptor, sequence (P08173 whole entry): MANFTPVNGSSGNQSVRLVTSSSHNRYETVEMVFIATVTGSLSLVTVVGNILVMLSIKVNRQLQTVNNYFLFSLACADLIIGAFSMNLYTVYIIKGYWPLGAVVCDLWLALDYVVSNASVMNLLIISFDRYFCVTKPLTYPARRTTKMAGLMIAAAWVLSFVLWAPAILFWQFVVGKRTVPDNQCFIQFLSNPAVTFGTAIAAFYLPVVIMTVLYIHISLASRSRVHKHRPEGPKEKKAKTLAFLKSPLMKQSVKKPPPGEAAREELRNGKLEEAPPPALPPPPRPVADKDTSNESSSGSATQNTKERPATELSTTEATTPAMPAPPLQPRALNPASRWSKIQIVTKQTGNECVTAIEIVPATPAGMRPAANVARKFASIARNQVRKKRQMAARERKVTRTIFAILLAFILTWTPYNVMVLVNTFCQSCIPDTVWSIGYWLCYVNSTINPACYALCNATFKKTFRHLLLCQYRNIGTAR

How did the Ki turn out when `N#Cc1cccc(N2CCN(C(=O)NCCC3CCN(Cc4ccccc4)CC3)CC2)c1` [8-25, N-[2-(1-benzylpiperidin-4-yl)ethyl]-4-(3-cyanophenyl)piperazine-1-carboxamide] was run?
The Ki was 100 to 1000 nM.

With `Cc1nc(-c2ccc(F)nc2)sc1C(=O)NCCC1CCN(Cc2ccccc2)CC1` [9-57, N-[2-(1-benzylpiperidin-4-yl)ethyl]-2-(6-fluoropyridin-3-yl)-4-methyl-1,3-thiazole-5-carboxamide] as the compound, how does the Ki read?
Its Ki is 100 to 1000 nM.

How did the Ki turn out when `COc1ncccc1-c1cc2ncc(C(=O)NCCC3CCN(Cc4ccccc4)CC3)c(C)n2n1` [18-14] was run?
Its Ki is 10 to 100 nM.

For `Cc1cc(C(=O)NCC(C)C)nc(N2CCN(C(=O)NCCC3CCN(Cc4ccccc4)CC3)[C@H](C)C2)n1` [27-11], which Ki is on record?
Its Ki is 10 to 100 nM.

Which Ki does the source give for `C[C@@H]1CN(c2cc(F)c(F)c(F)c2)CCN1C(=O)NCCC1CCN(Cc2ccccc2OC(F)F)CC1` [6-13, (2R)-N-[2-(1-{[2-(difluoromethoxy)phenyl]methyl}piperidin-4-yl)ethyl]-2-methyl-4-(3,4,5-trifluorophenyl)piperazine-1-carboxamide] here?
Its Ki is 10 to 100 nM.

For `COc1cc(C)c(-c2cc3ncc(C(=O)NCCC4CCN(Cc5ccccc5)CC4)c(C)n3n2)cn1` [18-19], which Ki is on record?
The Ki was 100 to 1000 nM.

How did the Ki turn out when `O=C(CC1CCN(Cc2ccccc2)CC1)NCC1CCN(c2cccc(OC(F)(F)F)c2)CC1` [10-26, 2-(1-benzylpiperidin-4-yl)-N-({1-[3-(trifluoromethoxy)phenyl]piperidin-4-yl}methyl)acetamide] was run?
Its Ki is 100 to 1000 nM.

How did the Ki turn out when `N#Cc1ccc(N2CCC(C(=O)NCCC3CCN(Cc4ccccc4)CC3)CC2)c(F)c1` [10-50, N-[2-(1-benzylpiperidin-4-yl)ethyl]-1-(4-cyano-2-fluorophenyl)piperidine-4-carboxamide] was run?
The Ki was 100 to 1000 nM.

How did the Ki turn out when `COc1ccccc1CN1CCC(CCNC(=O)N2[C@H](C)CN(c3ncc(C#N)cn3)C[C@@H]2C)CC1` [6-67, (2R,6S)-4-(5-cyanopyrimidin-2-yl)-N-(2-{1-[(2-methoxyphenyl)-methyl]piperidin-4-yl}ethyl)-2,6-dimethylpiperazine-1-carboxamide] was run?
Its Ki is 10 to 100 nM.

For `C[C@@H]1CN(c2cc(F)c(F)c(F)c2)CCN1C(=O)NCCC1CCN(Cc2ccccc2OC(F)(F)F)CC1` [6-21, (2R)-2-methyl-N-[2-(1-{[2-(trifluoromethoxy)phenyl]methyl}piperidin-4-yl)ethyl]-4-(3,4,5-trifluorophenyl)piperazine-1-carboxamide], which Ki is on record?
The Ki was 100 to 1000 nM.

Which Ki does the source give for `N#Cc1cccc(N2CCC(NC(=O)OCCC3CCN(Cc4ccccc4)CC3)CC2)c1` [12-5, 2-(1-benzylpiperidin-4-yl)ethyl N-[1-(3-cyanophenyl)piperidin-4-yl]carbamate] here?
The Ki was 100 to 1000 nM.

Which Ki does the source give for `O=C(NCCN1CCC(Cc2ccccc2)CC1)c1ccn2cc(-c3ccc(OC(F)(F)F)cc3)nc2c1` [9-68, N-[2-(4-benzylpiperidin-1-yl)ethyl]-2-[4-(trifluoromethoxy)phenyl]imidazo[1,2-a]pyridine-7-carboxamide] here?
Its Ki is 100 to 1000 nM.

How did the Ki turn out when “4-phenoxy-N-{2-[1-(3-phenylpropyl)piperidin-4-yl]ethyl}benzamide [11-28]” was run?
The Ki was 100 to 1000 nM.

For `O=C(NCCC1CCN(Cc2ccccc2)CC1)C1CCN(c2ccccc2F)CC1` [10-59, N-[2-(1-benzylpiperidin-4-yl)ethyl]-1-(2-fluorophenyl)piperidine-4-carboxamide], which Ki is on record?
Its Ki is 100 to 1000 nM.

Which Ki does the source give for `COc1cccc(CN2CCC(CCNC(=O)c3ccc(OCc4ccccc4)cc3)CC2)c1O` [11-9, 4-(benzyloxy)-N-(2-{1-[(2-hydroxy-3-methoxyphenyl)methyl]piperidin-4-yl}ethyl)benzamide] here?
Its Ki is 100 to 1000 nM.

For `CC(C)CCN1CCC(CCNC(=O)N2[C@H](C)CN(c3ncc(C#N)cn3)C[C@@H]2C)CC1` [21-8], which Ki is on record?
The Ki was 100 to 1000 nM.

For `C[C@@H]1CN(c2ccc(F)nc2)CCN1C(=O)NCCC1CCN(Cc2ccccc2)CC1` [4-35, (2R)-N-[2-(1-benzylpiperidin-4-yl)ethyl]-4-(6-fluoropyridin-3-yl)-2-methylpiperazine-1-carboxamide], which Ki is on record?
The Ki was 10 to 100 nM.

For `O=C(NCCC1CCN(Cc2ccccc2)CC1)N1CCC(N2Cc3ccccc3NC2=O)CC1` [8-44, N-[2-(1-benzylpiperidin-4-yl)ethyl]-4-(2-oxo-1,2,3,4-tetrahydroquinazolin-3-yl)piperidine-1-carboxamide], which Ki is on record?
The Ki was 100 to 1000 nM.

“N-{2-[1-(2-hydroxy-1-phenylethyl)piperidin-4-yl]ethyl}-1-[4-(trifluoromethoxy)phenyl]piperidine-4-carboxamide [11-12]” was tested. Which Ki did it give?
The Ki was 100 to 1000 nM.

For `CN(CCNC(=O)c1ccc(-c2ccccc2)cc1)[C@@H]1CCN(Cc2ccccc2)C1` [9-38, N-(2-{[(3R)-1-benzylpyrrolidin-3-yl](methyl)amino}ethyl)-4-phenylbenzamide], which Ki is on record?
The Ki was 100 to 1000 nM.

For `C[C@@H]1CN(c2ccccn2)CCN1C(=O)NCCC1CCN(Cc2ccccc2)CC1` [4-62, (2R)-N-[2-(1-benzylpiperidin-4-yl)ethyl]-2-methyl-4-(pyridin-2-yl)piperazine-1-carboxamide], which Ki is on record?
The Ki was 100 to 1000 nM.

For `Cc1c(C(=O)NCCC2CCN(Cc3ccccc3)CC2)cnc2cc(-c3ccc(C#N)cc3)nn12` [18-3], which Ki is on record?
Its Ki is 100 to 1000 nM.

`COC1(C(=O)NCCC2CCN(Cc3ccccc3)CC2)CCN(c2ccc(OC(F)(F)F)cc2)CC1` [10-38, N-[2-(1-benzylpiperidin-4-yl)ethyl]-4-methoxy-1-[4-(trifluoromethoxy)phenyl]piperidine-4-carboxamide] was tested. Which Ki did it give?
Its Ki is 10 to 100 nM.

How did the Ki turn out when `O=C(OCCC1CCN(Cc2ccccc2)CC1)N1CCC(c2ccccc2)CC1` [12-8, 2-(1-benzylpiperidin-4-yl)ethyl 4-phenylpiperidine-1-carboxylate] was run?
The Ki was 100 to 1000 nM.

How did the Ki turn out when `O=C(NCCC1CCN(Cc2ccccc2)CC1)N1CCC(O)(c2ccc(Cl)cc2)CC1` [8-23, N-[2-(1-benzylpiperidin-4-yl)ethyl]-4-(4-chlorophenyl)-4-hydroxypiperidine-1-carboxamide] was run?
Its Ki is 100 to 1000 nM.

With “N-{2-[1-(2,2-dimethylpropyl)piperidin-4-yl]ethyl}-1-[4-(trifluoromethoxy)phenyl]piperidine-4-carboxamide [11-27]” as the compound, how does the Ki read?
The Ki was 100 to 1000 nM.

Which Ki does the source give for `N#Cc1ccc(N2CCC(C(=O)NCCC3CCN(Cc4ccccc4O)CC3)CC2)nc1` [11-26, 1-(5-cyanopyridin-2-yl)-N-(2-{1-[(2-hydroxyphenyl)methyl]piperidin-4-yl}ethyl)piperidine-4-carboxamide] here?
Its Ki is 100 to 1000 nM.

With `C[C@@H]1CN(c2ncc(C#N)cn2)C[C@H](C)N1C(=O)NCCC1CCN(Cc2cccnc2F)CC1` [6-64, (2R,6S)-4-(5-cyanopyrimidin-2-yl)-N-(2-{1-[(2-fluoropyridin-3-yl)methyl]piperidin-4-yl}ethyl)-2,6-dimethylpiperazine-1-carboxamide] as the compound, how does the Ki read?
The Ki was 100 to 1000 nM.

How did the Ki turn out when `C[C@@H]1CN(c2ncc(F)cn2)CCN1C(=O)NCCC1CCN(Cc2ccccc2)CC1` [4-41, (2R)-N-[2-(1-benzylpiperidin-4-yl)ethyl]-4-(5-fluoropyrimidin-2-yl)-2-methylpiperazine-1-carboxamide] was run?
Its Ki is 10 to 100 nM.

Which Ki does the source give for `Cc1c(C(=O)NCCC2CCN(Cc3ccccn3)CC2)cnc2cc(-c3cccc(C(F)(F)F)c3)nn12` [19-6] here?
Its Ki is 100 to 1000 nM.

How did the Ki turn out when `O=C(NCCN1CCC(O)(Cc2ccccc2)CC1)c1ccn2cc(-c3ccc(OC(F)(F)F)cc3)nc2c1` [9-19, N-[2-(4-benzyl-4-hydroxypiperidin-1-yl)ethyl]-2-[4-(trifluoromethoxy)phenyl]imidazo[1,2-a]pyridine-7-carboxamide] was run?
Its Ki is 100 to 1000 nM.

`C[C@@H]1CN(c2ncc(C#N)cn2)C[C@H](C)N1C(=O)NCCC1CCN(Cc2ccc3occc3c2)CC1` [6-60, (2R,6S)-N-{2-[1-(1-benzofuran-5-ylmethyl)piperidin-4-yl]ethyl}-4-(5-cyanopyrimidin-2-yl)-2,6-dimethylpiperazine-1-carboxamide] was tested. Which Ki did it give?
Its Ki is 10 to 100 nM.

Which Ki does the source give for `CN(C(=O)c1ccc(Cl)c(-c2nc3ccccc3cc2C#N)c1)[C@@H]1CCN(C2CCCCC2)C1` [9-18, 4-chloro-3-(3-cyanoquinolin-2-yl)-N-[(3R)-1-cyclohexylpyrrolidin-3-yl]-N-methylbenzamide] here?
The Ki was 100 to 1000 nM.

Which Ki does the source give for `C[C@H]1CN(c2ncc(C#N)cn2)CCC1C(=O)NCCC1CCN(Cc2ccccc2)CC1` (stereo partly drawn) [20-1, (3R)-N-[2-(1-benzylpiperidin-4-yl)ethyl]-1-(5-cyanopyrimidin-2-yl)-3-methylpiperidine-4-carboxamide] here?
The Ki was 10 to 100 nM.

For `CN(CCNC(=O)C1CCN(c2cccc(OC(F)(F)F)c2)CC1)[C@@H]1CCN(Cc2ccccc2)C1` [9-22, N-(2-{[(3R)-1-benzylpyrrolidin-3-yl](methyl)amino}ethyl)-1-[3-(trifluoromethoxy)phenyl]piperidine-4-carboxamide], which Ki is on record?
The Ki was 10 to 100 nM.

Which Ki does the source give for `C[C@@H]1CN(c2cc(F)c(F)c(F)c2)CCN1C(=O)NCCN1CCN(Cc2ccccc2)CC1` [7-6, (2R)-N-[2-(4-benzylpiperazin-1-yl)ethyl]-2-methyl-4-(3,4,5-trifluorophenyl)piperazine-1-carboxamide] here?
The Ki was 100 to 1000 nM.

With `Cc1[nH]c(-c2ccc(Cl)cc2Cl)nc1C(=O)NCCC1CCN(Cc2ccccc2)CC1` [9-61, N-[2-(1-benzylpiperidin-4-yl)ethyl]-2-(2,4-dichlorophenyl)-5-methyl-1H-imidazole-4-carboxamide] as the compound, how does the Ki read?
The Ki was 100 to 1000 nM.

Which Ki does the source give for `COc1cccc(C2CCN(C(=O)NCCC3CCN(Cc4ccccc4)CC3)CC2)c1` [8-5, N-[2-(1-benzylpiperidin-4-yl)ethyl]-4-(3-methoxyphenyl)piperidine-1-carboxamide] here?
The Ki was 100 to 1000 nM.

`COc1cc(C#N)cc(N2CCN(C(=O)NCCC3CCN(Cc4ccccc4)CC3)[C@H](C)C2)c1` [4-39, (2R)-N-[2-(1-benzylpiperidin-4-yl)ethyl]-4-(3-cyano-5-methoxyphenyl)-2-methylpiperazine-1-carboxamide] was tested. Which Ki did it give?
The Ki was 10 to 100 nM.

From patent US11033539B2, “Compounds of formulas (VII), (VIII), (IX), (XI), (XII), (XIII), and (XIV) as muscarinic receptor 4(M4) antagonists for treating neurological diseases” (Neurocrine Biosciences, Inc., priority 2015, dated 2021)
